Counter-ions that a name gives are not always drawn.

The assay deals with SARS-CoV-2 Mac1 (Severe acute respiratory syndrome coronavirus 2, UniProt P0DTD1). In words: biochemical. The note with it: for inhibition at 100 µM: read-out: %inhibition; for %inhibition: 100 µM, inhibitor.

As a reminder, the inhibition is the drop in the measured response relative to a control, in per cent. Take `C[C@@](Cc1ccc(O)c(O)c1)(NN)C(=O)O` [Carbidopa]: the inhibition at 100 µM worked out at 24.2%.
On the same count and under the same terms, the value for `CCOC(=O)n1ccn(C)c1=S` [Carbimazole] was 0%; that for `CN(C)CCOC(c1ccc(Cl)cc1)c1ccccn1` (centres unmarked) [CarbinoxaMine Maleate] was 0%.
The same measure, in the same setting: the same measure for `CCCCC[C@](C)(O)/C=C/[C@@H]1[C@@H](C/C=C\CCCC(=O)O)[C@@H](O)C[C@H]1O` [Carboprost]: 17.6%.
By %inhibition is commonly meant the share of the control response that was lost under treatment. Low readings indicate a weak effect, high ones a strong effect. Consider `CCCCCCNC(=O)n1cc(F)c(=O)[nH]c1=O` [Carmofur], for which the “%inhibition” value is on record as 16.37%.
As for `CC(C(=O)O)c1ccc2c(c1)[nH]c1ccc(Cl)cc12` (centres unmarked) [Carprofen], the inhibition at 100 µM turned out to be 0%.
On the same count and under the same terms, the value for `O=c1[nH]c(=O)c2ccccc2o1` [Carsalam] was 0%; that for `CC(C)(C)NCC(O)COc1cccc2c1CCC(=O)N2` (centres unmarked) [Carteolol HCl] was 3.36%.
Turning to `COc1ccccc1OCCNCC(O)COc1cccc2[nH]c3ccccc3c12` (centres unmarked) [Carvedilol Phosphate], the “%inhibition” value is on record as 0%.
On the same count and under the same terms, the value for `COc1ccccc1OCCNCC(O)COc1cccc2[nH]c3ccccc3c12` (centres unmarked) [Carvedilol] was 23.79%.
On to `NS(=O)(=O)c1ccc(C(=O)O)cc1` [Carzenide], for which the inhibition at 100 µM amounted to 0%.
As for `CC[C@H](C)C[C@H](C)CCCCCCCCC(=O)N[C@H]1C[C@@H](O)[C@@H](NCCN)NC(=O)[C@@H]2[C@@H](O)CCN2C(=O)[C@H]([C@H](O)CCN)NC(=O)[C@H]([C@H](O)[C@@H](O)c2ccc(O)cc2)NC(=O)[C@@H]2C[C@@H](O)CN2C(=O)[C@H]([C@@H](C)O)NC1=O` [Caspofungin Acetate], the inhibition at 100 µM was 0%.
The same measure, in the same setting: the value for `COc1cc2c(Oc3ccc4[nH]c(C)cc4c3F)ncnc2cc1OCCCN1CCCC1` [Cediranib (AZD2171)] was 51.1%; that for `N[C@@H](C(=O)N[C@@H]1C(=O)N2C(C(=O)O)=C(Cl)CS[C@H]12)c1ccccc1` [Cefaclor] was 0%.
On the same count and under the same terms, the value for `CC1=C(C(=O)O)N2C(=O)[C@@H](NC(=O)[C@H](N)c3ccc(O)cc3)[C@H]2SC1` [Cefadroxil hydrate] was 0%.
Still for that read-out and setting: the same measure for `Cn1nnnc1SCC1=C(C(=O)O)N2C(=O)[C@@H](NC(=O)[C@H](OC=O)c3ccccc3)[C@H]2SC1` [Cefamandole nafate]: 0%; for `Cc1nnc(SCC2=C(C(=O)O)N3C(=O)[C@@H](NC(=O)Cn4cnnn4)[C@H]3SC2)s1` [Cefazolin Sodium]: 2.52%.
`CC/C=C(\C(=O)N[C@@H]1C(=O)N2C(C(=O)OCOC(=O)C(C)(C)C)=C(COC(N)=O)CS[C@H]12)c1csc(N)n1` [Cefcapene Pivoxil Hydrochloride]: the inhibition at 100 µM amounted to 0.547%.
The same measure, in the same setting: the value for `CO/N=C(\C(=O)N[C@@H]1C(=O)N2C(C(=O)OCOC(=O)C(C)(C)C)=C(/C=C\c3scnc3C)CS[C@H]12)c1csc(N)n1` [Cefditoren Pivoxil] was 0%; that for `CO/N=C(\C(=O)N[C@@H]1C(=O)N2C(C(=O)O)=C(C[N+]3(C)CCCC3)CS[C@H]12)c1csc(N)n1` [Cefepime Dihydrochloride Monohydrate] was 0%.
On to `C=CC1=C(C(=O)O)N2C(=O)[C@@H](NC(=O)/C(=N\OCC(=O)O)c3csc(N)n3)[C@H]2SC1` [Cefixime], for which the inhibition at 100 µM amounted to 0%.
On the same count and under the same terms, the same measure for `CO/N=C(\C(=O)N[C@@H]1C(=O)N2C(C(=O)O)=C(CSc3nnnn3C)CS[C@H]12)c1csc(N)n1` [Cefmenoxime hydrochloride]: 0%; for `CO[C@@]1(NC(=O)CSCC#N)C(=O)N2C(C(=O)O)=C(CSc3nnnn3C)CS[C@@H]21` [Cefmetazole sodium]: 8.58%; for `O=C(O)C1=C(CSc2nnnn2CS(=O)(=O)O)CS[C@@H]2[C@H](NC(=O)[C@H](O)c3ccccc3)C(=O)N12` [Cefonicid sodium]: 0%.
Still for that read-out and setting: the same measure for `CCN1CCN(C(=O)N[C@@H](C(=O)N[C@@H]2C(=O)N3C(C(=O)O)=C(CSc4nnnn4C)CS[C@H]23)c2ccc(O)cc2)C(=O)C1=O` [Cefoperazone]: 0%.
On the same count and under the same terms, the same measure for `NCc1ccccc1CC(=O)N[C@@H]1C(=O)N2C(C(=O)O)=C(CSc3nnnn3CC(=O)O)CS[C@H]12` [Ceforanide]: 0%.
In the case of `CO/N=C(\C(=O)N[C@@H]1C(=O)N2C(C(=O)O)=C(Cn3ccc(=N)n3CCO)CS[C@H]12)c1csc(N)n1` [Cefoselis Sulfate], the inhibition at 100 µM was found to be 22.8%.
Consider `CO/N=C(\C(=O)N[C@@H]1C(=O)N2C(C(=O)O)=C(COC(C)=O)CS[C@H]12)c1csc(N)n1` [Cefotaxime sodium], for which the inhibition at 100 µM was 0.981%.
Same read-out and setting: the value for `CC(OC(=O)OC1CCCCC1)OC(=O)C1=C(CSc2nnnn2CCN(C)C)CS[C@@H]2[C@H](NC(=O)Cc3csc(N)n3)C(=O)N12` (some centres unmarked) [Cefotiam Hexetil Hydrochloride] was 0%; that for `CN(C)CCn1nnnc1SCC1=C(C(=O)O)N2C(=O)[C@@H](NC(=O)Cc3csc(N)n3)[C@H]2SC1` [Cefotiam hydrochloride] was 23.3%; that for `CO[C@@]1(NC(=O)Cc2cccs2)C(=O)N2C(C(=O)O)=C(COC(N)=O)CS[C@@H]21` [Cefoxitin sodium] was 0%.
On the same count and under the same terms, the same measure for `CO/N=C(\C(=O)N[C@@H]1C(=O)N2C(C(=O)[O-])=C(C[n+]3ccn4ncccc43)CS[C@H]12)c1nsc(N)n1` [Cefozopran hydrochloride]: 8.9%.
Same read-out and setting: the value for `Cc1cc(O)c(C(=O)N[C@@H](C(=O)N[C@@H]2C(=O)N3C(C(=O)O)=C(CSc4nnnn4C)CS[C@H]23)c2ccc(O)cc2)cn1` [Cefpiramide sodium] was 0%.
With `CO/N=C(\C(=O)N[C@@H]1C(=O)N2C(C(=O)[O-])=C(C[n+]3cccc4c3CCC4)CS[C@H]12)c1csc(N)n1` [Cefpirome sulfate], the inhibition at 100 µM was found to be 0%.
Regarding `COCC1=C(C(=O)OC(C)OC(=O)OC(C)C)N2C(=O)[C@@H](NC(=O)/C(=N\OC)c3csc(N)n3)[C@H]2SC1` (some centres unmarked) [Cefpodoxime proxetil], the inhibition at 100 µM stood at 13.2%.
Take `CC1=C(C(=O)O)N2C(=O)[C@@H](NC(=O)[C@H](N)C3=CCC=CC3)[C@H]2SC1` [Cefradine]: the “%inhibition” value is 0.656%.
As to `CC(C)(O/N=C(\C(=O)N[C@@H]1C(=O)N2C(C(=O)[O-])=C(C[n+]3ccccc3)CS[C@H]12)c1csc(N)n1)C(=O)O` [Ceftazidime Pentahydrate], the inhibition at 100 µM turned out to be 0%.
Regarding `Nc1nc(/C(=C/CC(=O)O)C(=O)N[C@@H]2C(=O)N3C(C(=O)O)=CCS[C@H]23)cs1` [Ceftibuten dihydrate], the inhibition at 100 µM turned out to be 10.7%.
In the case of `CO/N=C(\C(=O)N[C@@H]1C(=O)N2C(C(=O)O)=C(CSC(=O)c3ccco3)CS[C@H]12)c1csc(N)n1` [Ceftiofur HCl], the “%inhibition” value was found to be 20.8%.
Same read-out and setting: the same measure for `CO/N=C(\C(=O)N[C@@H]1C(=O)N2C(C(=O)O)=C(CSC(=O)c3ccco3)CS[C@H]12)c1csc(N)n1` [Ceftiofur]: 0%.
As for `CO/N=C(\C(=O)N[C@@H]1C(=O)N2C(C(=O)O)=CCS[C@H]12)c1csc(N)n1` [Ceftizoxime], the inhibition at 100 µM was 12.3%.
As to `CO/N=C(\C(=O)N[C@@H]1C(=O)N2C(C(=O)O)=C(CSc3nc(=O)c(O)nn3C)CS[C@H]12)c1csc(N)n1` [Ceftriaxone Sodium Trihydrate], the “%inhibition” value stood at 0.1034%.
On the same count and under the same terms, the same measure for `CO/N=C(\C(=O)N[C@@H]1C(=O)N2C(C(=O)O)=C(CSc3nc(=O)c(O)nn3C)CS[C@H]12)c1csc(N)n1` [Ceftriaxone Sodium]: 17.28%.
Regarding `CO/N=C(\C(=O)N[C@@H]1C(=O)N2C(C(=O)OC(C)OC(C)=O)=C(COC(N)=O)CS[C@H]12)c1ccco1` (some centres unmarked) [Cefuroxime axetil], the inhibition at 100 µM came to 0%.
Still for that read-out and setting: the value for `CO/N=C(\C(=O)N[C@@H]1C(=O)N2C(C(=O)O)=C(COC(N)=O)CS[C@H]12)c1ccco1` [Cefuroxime sodium] was 0%; that for `Cc1ccc(-c2cc(C(F)(F)F)nn2-c2ccc(S(N)(=O)=O)cc2)cc1` [Celecoxib] was 10.4%.
On the same count and under the same terms, the value for `CC1=C(C(=O)O)N2C(=O)[C@@H](NC(=O)[C@H](N)c3ccccc3)[C@H]2SC1` [Cephalexin] was 0%.
The same measure, in the same setting: the same measure for `CC(=O)OCC1=C(C(=O)O)N2C(=O)[C@@H](NC(=O)Cc3cccs3)[C@H]2SC1` [Cephalothin]: 8.54%; for `CC(=O)OCC1=C(C(=O)O)N2C(=O)[C@@H](NC(=O)CSc3ccncc3)[C@H]2SC1` [Cephapirin Sodium]: 0%; for `COc1ccc2cc1Oc1ccc(cc1)C[C@H]1c3c(cc4c(c3Oc3cc5c(cc3OC)CCN(C)[C@@H]5C2)OCO4)CCN1C` [Cepharanthine]: 18.2%.
Consider `CC1=C(C(=O)O)N2C(=O)[C@@H](NC(=O)[C@H](N)C3=CCC=CC3)[C@H]2SC1` [Cephradine monohydrate], for which the “%inhibition” value is 0%.
For the compound `CCS(=O)(=O)N1CCN(c2ccc(Nc3ncc(C(N)=O)c(NC4CC4)n3)cc2)CC1` [Cerdulatinib (PRT062070, PRT2070)], the inhibition at 100 µM worked out at 15.9%.
Turning to `Cc1cc(Nc2ncc(Cl)c(Nc3ccccc3S(=O)(=O)C(C)C)n2)c(OC(C)C)cc1C1CCNCC1` [Ceritinib (LDK378)], the inhibition at 100 µM stood at 0%.
With `CCCCCCCCCCCCCCCCOc1nc2ccc(C)cc2c(=O)o1` [Cetilistat], the inhibition at 100 µM came to 8.35%.
With `O=C(O)COCCN1CCN(C(c2ccccc2)c2ccc(Cl)cc2)CC1` (centres unmarked) [Cetirizine DiHCl], the inhibition at 100 µM is 1.2%.
The same measure, in the same setting: the value for `CCCCCCCCCCCCCCCC[N+](C)(C)C` [Cetrimonium Bromide (CTAB)] was 25.1%; that for `C[C@H](CCC(=O)O)[C@H]1CC[C@H]2[C@@H]3[C@H](O)C[C@@H]4C[C@H](O)CC[C@]4(C)[C@H]3CC[C@]12C` [Chenodeoxycholic Acid] was 0%.
The same measure, in the same setting: the same measure for `O=C(N[C@H](CO)[C@H](O)c1ccc([N+](=O)[O-])cc1)C(Cl)Cl` [Chloramphenicol]: 0%.
Turning to `NC(=NCCCCCCN=C(N)/N=C(\N)Nc1ccc(Cl)cc1)/N=C(\N)Nc1ccc(Cl)cc1` [Chlorhexidine?2HCl], the “%inhibition” value came to 7.76%.

The record behind these values is article doi:10.1101/2021.10.07.463234v2 (biorxiv, 2021).
